The nature of data set [1]: Stimulation of growth hormone secretion in rat pituitary cells. The settings on record: Pituitary gland cell. It is filed as functional, cell-based.
Data set [2] has as its target T1, Growth hormone secretagogue receptor type 1 (Homo sapiens, UniProt Q92847). Nature of the data set: Binding affinity to GHS-R1a (unknown origin) assessed as inhibition constant.
A short description of data set [3]: Oral bioavailability in human. It is filed as ADME, organism-based. Conditions: in vivo.
The target of data set [4] is T1, Growth hormone secretagogue receptor type 1. Briefly: Binding affinity to GHS-R1a (unknown origin). The settings on record: filed as agonist.
Data set [5] in a line: Stimulation of growth hormone secretion in Wistar rat pituitary cells measured after 15 mins. It counts as functional, cell-based. The settings on record: Pituitary gland cell, 0.25 h.

Each structure is given as a SMILES string. Peptide text beside a SMILES is read from it.

T1 sequence (Q92847 whole entry): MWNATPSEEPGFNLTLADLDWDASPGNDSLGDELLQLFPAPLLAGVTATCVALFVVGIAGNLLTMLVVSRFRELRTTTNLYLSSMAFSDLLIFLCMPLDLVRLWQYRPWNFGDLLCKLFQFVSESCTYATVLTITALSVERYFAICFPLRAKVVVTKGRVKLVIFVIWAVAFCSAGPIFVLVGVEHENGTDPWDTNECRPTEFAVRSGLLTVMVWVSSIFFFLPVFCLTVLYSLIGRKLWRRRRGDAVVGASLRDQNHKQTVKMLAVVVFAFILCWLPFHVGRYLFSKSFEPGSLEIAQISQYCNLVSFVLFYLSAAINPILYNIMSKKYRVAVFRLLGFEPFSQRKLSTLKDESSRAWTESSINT

Compound `C[C@H](NC(=O)[C@H](Cc1c[nH]c2ccccc12)NC(=O)[C@@H](N)Cc1c[nH]cn1)C(=O)N[C@@H](Cc1c[nH]c2ccccc12)C(=O)N[C@@H](Cc1ccccc1)C(=O)N[C@@H](CCCCN)C(N)=O` (H-HWAWFK-NH2) yielded an EC50 in data set [1] of 10 nM. This lies in the double-digit nanomolar range.

As to `CN1CCC(S(=O)(=O)N[C@@H](COCc2ccccc2)C(=O)N2CCC3(CC2)CN(S(C)(=O)=O)c2ccccc23)CC1`, in data set [2], the inhibition constant (Ki) was less than 100 nM. Take `CC(C)(N)CC(=O)N[C@@H]1CCc2ccccc2N(Cc2ccc(-c3ccccc3-c3nn[nH]n3)cc2)C1=O`: in data set [1], the half-maximal effective concentration (EC50) was 60 nM.

As for `Cc1[nH]c2ccccc2c1C[C@@H](NC(=O)[C@@H](N)Cc1cnc[nH]1)C(=O)N[C@@H](C)C(=O)N[C@@H](Cc1c[nH]c2ccccc12)C(=O)N[C@H](Cc1ccccc1)C(=O)N[C@@H](CCCCN)C(N)=O` [EXAMORELIN] (HELM PEPTIDE1{H.[Cc1[nH]c2ccccc2c1C[C@@H](N[*:1])C(=O)[*:2]].A.W.[dF].K.[am]}$$$$V2.0), the bioavailability in data set [3] was less than 1%. Turning to `C[C@H](O)CNC(C)(C)CC(=O)N[C@@H]1CCc2ccccc2N(Cc2ccc(-c3ccccc3-c3nn[nH]n3)cc2)C1=O`, the response in data set [1] was half-maximal at 3 nM (EC50). That is a single-digit nanomolar value. As to `CC(C)(N)C(=O)N[C@H](COCc1ccccc1)C(=O)N1CCC2(CC1)CN(S(C)(=O)=O)c1ccccc12` [IBUTAMOREN], in data set [4], the Activity came to 0.3 nM. In data set [1], the midpoint of the response, the EC50, lay at 1.3 nM.

In data set [5], `CN1N=C2CCN(C(=O)[C@@H](COCc3ccccc3)NC(=O)C(C)(C)N)C[C@@]2(Cc2ccccc2)C1=O` [CAPROMORELIN] returned an EC50 of 3 nM.

The record behind these values is ChEMBL document CHEMBL5113387, “An insight into the multifunctional role of ghrelin and structure activity relationship studies of ghrelin receptor ligands with clinical trials” (Eur J Med Chem, 2022).
